The text below walks through data of PubChem BioAssay AID1949 (Southern Research Institute, 2009).

This assay relates to M. tuberculosis H37Rv growth inhibition. Nature of the assay: Confirmatory growth inhibition assay against Mycobacterium tuberculosis H37Rv, potency (AID 1949).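 Further: bacteria grown 7 days with compound before Alamar blue readout.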

Converted amounts (≈) assume the structure as drawn. Results filed as inconclusive are left out. The source made the active and inactive calls. How the calls were made is not given here.

Take `CCOC(=O)/C=C/C(=O)Nc1sc2c(c1C(=O)OC)CCC2`: the concentration for half-maximal inhibition (IC50) was 0.57 mg/L (≈ 1.76 µM). Under `CC(C)(C)OC(=O)CS(=O)c1ccc(S(=O)(=O)C(F)(F)F)cc1[N+](=O)[O-]` (stereo not given) stands 2.14 mg/L (≈ 5.13 µM).

With `COCCCN1C(=O)c2cccc3c([N+](=O)[O-])ccc(c23)C1=O`, the IC50 is 15.3 mg/L (≈ 48.7 µM). Under `CCOC(=O)c1c(-c2ccccc2)c2cc(OC)ccc2n1CCCN(C)C` stands 4.68 mg/L (≈ 12.3 µM); under `CCCCOc1ccc(S(=O)(=O)Nc2ccc(I)cc2)cc1`, 2.84 mg/L (≈ 6.58 µM). As for `CCC(=O)NC(=S)Nc1ccc(C(C)C)cc1`, the IC50 is less than 0.1 mg/L. The same measure for `COC(=O)COc1ccc2c(=O)c(Oc3ccccc3OC)c(C)oc2c1`: 1.39 mg/L (≈ 3.75 µM). `O=C(Nc1ccc(Cl)c(C(F)(F)F)c1)c1csc2c1CCCC2`: the concentration for half-maximal inhibition (IC50) was 2.66 mg/L (≈ 7.39 µM). Regarding `CCn1c(NCc2c(O)ccc3ccccc23)nc2ccccc21`, the IC50 was 2.05 mg/L (≈ 6.46 µM).

As to `O=C(CCNc1ccc(Cl)c(C(F)(F)F)c1)c1cccs1`, the half-inhibitory concentration (IC50) was 3.17 mg/L (≈ 9.5 µM). With `Cc1cc(OCC(O)CNC(C)c2ccccc2)ccc1C(C)C` (stereo not given), the half-maximal inhibitory concentration (IC50) was 5.52 mg/L (≈ 16.9 µM).

Regarding `CCN(CC)c1cccc(Oc2nc([N+](=O)[O-])nn2C)c1`, the IC50 is 1.81 mg/L (≈ 6.21 µM). As to `COc1cc(/C=C2\Oc3ccccc3C2O)cc(Cl)c1OC` (stereo not given), the 50% inhibitory concentration (IC50) is 3.04 mg/L (≈ 9.54 µM). `CCNc1nc(NCC)nc(SCCOc2ccc(Br)cc2)n1`: the IC50 was 4.24 mg/L (≈ 10.6 µM). In the case of `O=S1(=O)C=CC2ON=C(c3ccc(C(F)(F)F)cc3)C21` (stereo not given), the concentration for half-maximal inhibition (IC50) is 3.08 mg/L (≈ 10.2 µM). In the case of `c1ccc(CCNc2nc(-c3ccccn3)cs2)cc1`, the IC50 was 0.4 mg/L (≈ 1.42 µM). The same measure for `c1ccc(CCN2CCN(c3ncnc4sc5c(c34)CCCC5)CC2)cc1`: 23.9 mg/L (≈ 63.2 µM); for `COc1cc(Br)cc2cc(C(=O)Nc3ccccc3C(F)(F)F)c(=O)oc12`: > 50 mg/L (inactive). Consider `O=C(CSc1nnc(-c2cccnc2)o1)c1ccc(Oc2ccccc2)cc1`, for which the IC50 was > 50 mg/L (inactive). For the compound `CCC(=O)c1ccc(OCC(O)CN2CCN(c3ccc(C)cc3C)CC2)cc1` (stereo not given), the IC50 is > 50 mg/L (inactive). On to `CC(=O)Nc1ccc2cccc(O)c2n1`, for which the IC50 is 0.96 mg/L (≈ 4.75 µM).

For `O=C1c2cccc3c([N+](=O)[O-])ccc(c23)C(=O)N1Cc1ccccc1`, the IC50 was 46 mg/L (≈ 138 µM). The same measure for `CCc1ccc(C(=O)NC(=S)Nc2ccc(Cc3ccncc3)cc2)cc1`: 10.9 mg/L (≈ 29.1 µM); for `O=C(OCc1c(F)cccc1Cl)c1cc2ccccc2oc1=O`: > 50 mg/L (inactive). On to `Cc1ccc(NC(=O)c2ccc(OCC(=O)OC3CCCCC3)cc2)cc1`, for which the concentration for half-maximal inhibition (IC50) is 2.73 mg/L (≈ 7.43 µM). Under `Cc1ccc(NC(=O)C2C3CC/C=C\CC/C=C/CCC32)cc1C` (stereo not given) stands 23.6 mg/L (≈ 72.8 µM); under `COC(=O)c1ccc(NC(=O)CSc2nnc(-c3ccc(Br)cc3)o2)cc1`, 5.83 mg/L (≈ 13 µM); under `CC(C(=O)Oc1cccc2cccnc12)N1C(=O)c2ccccc2C1=O` (stereo not given), 4.4 mg/L (≈ 12.7 µM). In the case of `O=C(CC1COc2ccccc2O1)Nc1ccc(Br)cc1` (stereo not given), the half-inhibitory concentration (IC50) is 11 mg/L (≈ 31.6 µM). As to `Brc1ccc(Nc2nc(-c3ccccn3)cs2)cc1`, the IC50 was 0.13 mg/L (≈ 0.391 µM). The same measure for `CN1CCN(c2ccc(NC(=O)c3ccc(-c4ccc(Br)cc4)o3)cc2)CC1`: 2.94 mg/L (≈ 6.68 µM); for `COC(=O)COc1ccc2cc(-c3ccc(Cl)cc3)c(=O)oc2c1`: 18.8 mg/L (≈ 54.6 µM); for `CCOc1ccc(OCC(=O)Nc2cccc(F)c2)cc1`: less than 0.1 mg/L. On to `OC(COc1ccccc1Br)CN1CCN(C(c2ccccc2)c2ccccc2)CC1` (stereo not given), for which the IC50 is 5.33 mg/L (≈ 11.1 µM).

For the compound `Brc1c(OCCCn2ccnc2)ccc2ccccc12`, the concentration for half-maximal inhibition (IC50) was 1.56 mg/L (≈ 4.71 µM). On to `CCn1cc(C(=O)O)c(=O)c2cc(F)c(N3CCN(C(=O)Nc4ccccc4)CC3)cc21`, for which the IC50 is > 50 mg/L (inactive). `O=C(CSc1nnc(-c2ccccc2Cl)o1)Nc1ccccn1`: the IC50 is > 50 mg/L (inactive).

On to `O=C(Nc1ccc(Oc2ccccc2)cc1)Nc1cccc([N+](=O)[O-])c1`, for which the IC50 is 1.09 mg/L (≈ 3.12 µM). With `COC(=O)COc1ccc(Br)cc1C=O`, the 50% inhibitory concentration (IC50) is 12.4 mg/L (≈ 45.5 µM).

With `CCOC(=O)c1c(NC(=S)N2CCN(C(=O)C3CCCO3)CC2)sc(C)c1-c1ccccc1` (stereo not given), the half-maximal inhibitory concentration (IC50) was 6.67 mg/L (≈ 13.7 µM).

Usually IC50 stands for the concentration that inhibits the measured activity by half.
